Laboratory results from patent US20050170966A1, “Surfactants and surfactant compositions” (priority 2002, published 2005).

Key:
Type in all cases: in vivo
[1] = system: mixtures of weeds: Cockspur (Echinochloa crus-galli), Fat-hen (Chenopodium album), Smartweed (Polygonum persicaria); assay: Field trial: adjuvant effect on Glyphosate herbicidal activity on mixed weed plots; conditions: glyphosate 1080 g(a.e.).ha^-1, adjuvant 540 g.ha^-1 (2:1)
Protocol: This Example tests the effect of adjuvants on Glyphosate herbicidal activity under field conditions. The herbicide was applied to test plots of weeds at a rate of 1080 g(a.e.).ha^−1 (350 l.ha^−1 of spray containing 3.086 g.l^−1 a.e.) with a weight ratio of active to adjuvant of 2:1=540 g(adjuvant).ha^−1. Spray plots were treated with the herbicide formulations, one of each of four adjuvants of the invention (SE1, SE2, SE3, and SE4) a fatty amine ethoxylate (FAE1) for comparison, or left untreated as controls (no weed control). The spray plots were in a completely randomised block design with 3 replicates of 3×5 m plots. the sprayed plots were sprayed using a compressed-air AZO sprayer at a pressure of 2.5 bar, equipped with Teejet XR80015VS nozzles. During this trial, it rained for about 15 minutes about 2 hours after spraying, giving a good indication of the rainfastness off the formulations tested.
The test plots used mixtures of the following weeds at the 2 to 4 leaf stage:
The results of spraying were evaluated by visual comparison with untreated control blocks 12, 20 and 35 days after treatment (DAT), assessing chlorosis (chlor) and growth inhibition (inhib) as percentages with 0=no effect and 100=complete kill as compared with the untreated controls.

Italian ryegrass = assay: Field trial of glyphosate formulations with adjuvant; conditions: It R; 6 DAT; glyphosate 1080 g(a.e).ha^-1, adjuvant 405 g.ha^-1
Protocol: (§1) In this Example, adjuvants of the invention (SE2), plus TAE1 as control, were tested in field trials in formulations including glyphosate (isopropylamine salt) as a herbicide on flax, pea, Savoy cabbage (Sav C) and Italian ryegrass (It R) as target crops. The application rate was 1080 g(a.e).ha^−1, with adjuvant at an application rate of 405 g.ha^−1 (75% of the normal application rate for adjuvants in such formulations of 540 g.ha^−1). The effectiveness of the formulations was by visual assessment of Growth Reduction (Gr Red) and Chlorosis/Necrosis (Chlor) 6 DAT with the values being reported in % (related to an untreated control=0% effect).

Savoy cabbage = assay: as above; conditions: Sav C; 6 DAT; glyphosate 1080 g(a.e).ha^-1, adjuvant 405 g.ha^-1
Protocol: as §1

flax = assay: as above; conditions: 6 DAT, glyphosate 1080 g(a.e).ha^-1, adjuvant 405 g.ha^-1
Protocol: as §1

pea = assay: as above; conditions: 6 DAT, glyphosate 1080 g(a.e).ha^-1, adjuvant 405 g.ha^-1
Protocol: as §1

## 1-[Bis-(2-hydroxyethyl)-amino]-2-hydroxypropane-3-(Alc1 15-ethoxylate) [SE2]
[1]; 12 DAT
  inhib (%) growth inhibition: 70%
[1]; 12 DAT, 0=no effect, 100=complete kill
  chlor (%) chlorosis: 68%
[1]; 20 DAT
  chlor (%) chlorosis: 75%
  inhib (%) growth inhibition: 75%
[1]; 35 DAT
  chlor (%) chlorosis: 77%
  inhib (%) growth inhibition: 77%
Italian ryegrass
  Chlor (%) Chlorosis/Necrosis: 50%
Savoy cabbage
  Chlor (%) Chlorosis/Necrosis: 40%
flax
  Chlor (%) Chlorosis/Necrosis: 50%
  Gr Red (%) Growth Reduction: 30%
pea
  Chlor (%) Chlorosis/Necrosis: 80%
  Gr Red (%) Growth Reduction: 55%
